In patent US8163781B2, “Bi-aryl aminotetralines” (Hoffman-La Roche Inc., priority 2008, dated 2012):

What follows are compounds tested against T1, human CRTH2 (Homo sapiens, UniProt Q9Y5Y4) (assay: Human CRTH2 Receptor Binding Assay). Conditions: whole cell binding, CHO-K1 cells expressing human CRTH2, 20 nM [3H]ramatroban as competing radioligand.
T1 construct: expressed in transfected cells
T1 sequence (Q9Y5Y4 1-395): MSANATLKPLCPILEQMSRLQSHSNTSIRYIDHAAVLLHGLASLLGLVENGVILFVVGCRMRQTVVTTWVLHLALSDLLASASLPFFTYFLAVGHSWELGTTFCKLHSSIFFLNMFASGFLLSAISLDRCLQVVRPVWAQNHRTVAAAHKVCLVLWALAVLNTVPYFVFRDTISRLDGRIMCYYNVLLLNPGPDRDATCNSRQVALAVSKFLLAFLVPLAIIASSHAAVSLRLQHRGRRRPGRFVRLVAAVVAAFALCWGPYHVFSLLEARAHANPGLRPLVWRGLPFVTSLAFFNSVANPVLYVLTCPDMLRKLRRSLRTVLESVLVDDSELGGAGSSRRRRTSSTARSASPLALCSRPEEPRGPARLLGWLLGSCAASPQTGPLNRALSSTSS
Source text: A whole cell receptor binding assay using [^3H]ramatroban as the competing radioactive ligand was employed to evaluate the compound binding activity to human CRTH2. The radioactive ligand [^3H]ramatroban was synthesized according to Sugimoto et. al. (Eur. J. Pharmacol. 524, 30-37, 2005) to a specific activity of 42 Ci/mmol.
A cell line stably expressing human CRTH2 was established by transfecting CHO-K1 cells with two mammalian expression vectors that harbored human CRTH2 and G-alpha16 cDNAs, respectively, using FuGene® 6 transfection reagent (from Roche). Stable clones expressing CRTH2 were selected by staining each clone with BM16 (BD Pharmingen™ from BD Biosciences, a division of Becton, Dickinson and Company), which is a rat monoclonal antibody to human CRTH2. The cells were maintained as monolayer cultures in Ham's F-12 medium containing 10% fetal bovine serum, 100 units/mL penicillin, 100 μg/mL streptomycin, 2 mM glutamine, 0.5 mg/mL G418 (geneticin) for CRTH2, and 0.2 mg/mL hygromycin-B (for G-alpha 16). For whole cell receptor binding assay, the monolayer cells were rinsed once with PBS (phosphate buffered saline), dissociated using ethylenediaminetetraacetate (Versene™ EDTA from the Lonza Inc.), and suspended in PBS containing 10 mM MgCl2 and 0.06% BSA (bovine serum albumin) at 1.5×10^6 cells/mL.
The binding reactions (0.2 mL) were performed in 96-well plates at room temperature in PBS containing 1.5×10^5 cells, 10 mM MgCl2, 0.06% BSA, 20 nM [^3H]ramatroban, and test compound at various concentrations. After 1 hour of binding reactions, the cells were harvested on GF™/B filter microplates (microtiter plates with embedded glass fiber from PerkinElmer, Inc.) and washed 5 times with PBS using a Filtermate™ Harvester (a cell harvester that harvests and washes cells from microplates from PerkinElmer, Inc.). The radioactivities bound to the cells were determined using a microplate scintillation counter (TopCount® NXT, from PerkinElmer, Inc.) after adding 50 μL of Microscint™ 20 scintillation fluid (from PerkinElmer, Inc.) to each well of the filter plates. The radioactivity from non-specific binding was determined by replacing compound with 10 μM of 15(R)-15-methyl PGD2 (from Cayman Chemical Company) in the reaction mixtures. The radioactivity bound to the cells in the absence of compound (total binding) was determined by replacing compound with 0.25% of DMSO (dimethyl sulfoxide) in the reaction mixture. Specific binding data were obtained by subtracting the radioactivity of non-specific binding from each binding data.
The IC50 value is defined as the concentration of the tested compound that is required for 50% inhibition of total specific binding. In order to calculate the IC50 value, the percent inhibition data were determined for 7 concentrations for each compound. The percent inhibition for a compound at each concentration was calculated according to the following formula, [1-(specific binding in the presence of compound)/(total specific binding)]×100. The IC50 value was then obtained by fitting the percent inhibition data to a sigmoidal dose-response (4 parameter logistic) model in the XLfit® software Excel add-in program [from ID Business Solutions Ltd., model 205, where F(x)=(A+(B−A)/(1+((C/x)^D)))].

Question: For O=C(O)COc1cccc2c1CCC[C@H]2NS(=O)(=O)c1ccc(-c2ccc(Cl)cc2)cc1 [Example 1-9, [(R)-5-(4′-Chloro-biphenyl-4-sulfonylamino)-5,6,7,8-tetrahydro-naphthalen-1-yloxy]-acetic acid], which IC50 is on record?
Answer: 84.1 nM

Question: C[S+]([O-])c1cccc(-c2ccc(S(=O)(=O)N[C@@H]3CCCc4c(OCC(=O)O)cccc43)cc2)c1 (stereo partly drawn) [Example 4-1, [(R)-5-(3′-Methanesulfinyl-biphenyl-4-sulfonylamino)-5,6,7,8-tetrahydro-naphthalen-1-yloxy]-acetic acid] was tested. Which IC50 did it give?
Answer: 13.5 nM

Question: Which IC50 does the source give for O=C(O)COc1cccc2c1CCC[C@H]2NS(=O)(=O)c1ccc(Oc2ccc(Cl)cc2)c(Cl)c1 [Example 2-2, {(R)-5-[3-Chloro-4-(4-chloro-phenoxy)-benzenesulfonylamino]-5,6,7,8-tetrahydro-naphthalen-1-yloxy}-acetic acid] here?
Answer: 10.2 nM

Question: With O=C(O)COc1cccc2c1CCC[C@H]2NS(=O)(=O)c1ccc(-c2cccc([N+](=O)[O-])c2)cc1 [Example 3-41, [(R)-5-(3′-Nitro-biphenyl-4-sulfonylamino)-5,6,7,8-tetrahydro-naphthalen-1-yloxy]-acetic acid] as the compound, how does the IC50 read?
Answer: 23.9 nM

Question: CC(=O)c1ccc(-c2ccc(S(=O)(=O)N[C@@H]3CCCc4c(OCC(=O)O)cccc43)cc2)cc1 [Example 1-10, [(R)-5-(4′-Acetyl-biphenyl-4-sulfonylamino)-5,6,7,8-tetrahydro-naphthalen-1-yloxy]-acetic acid] was tested. Which IC50 did it give?
Answer: 67.4 nM
